Data: BindingDB's records for patent US9161922 (Case Western Reserve University, 2015)

Target: Primary amine oxidase, liver isozyme (Bos taurus, UniProt Q29437)
Assay: Inhibition Assay
Settings: pH 7.2; 30 °C
Description: In the following Examples, 0.9 mL aliquots of a solution of candidate inhibitor in 100 mM potassium phosphate buffer, pH 7.2 was mixed bovine plasma amine oxidase (0.1 mL, about […]) and incubated at 30° C. aerobically. Aliquots (0.1 mL) were periodically withdrawn using disposable calibrated Drummond micropipettes and diluted with 1.0 mL of benzylamine (5 mM in 50 mM sodium phosphate buffer, pH 7.2) in a 1 cm quartz cuvette (1.5 mL volume). The rate of oxidation of benzylamine to benzaldehyde was measured by recording the increase in absorbance at 250 nm for 1 minute and compared to the rate of benzylamine oxidation in a companion control solution of enzyme without inhibitor. The concentration of active BPAO was estimated from the rate of benzylamine oxidation. Inhibitory potency values (IC50 values) and partition values for inactivation of BPAO were measured at various times as in indicated in the Tables.

Sequence of Primary amine oxidase, liver isozyme (Q29437 17-762 limits assumed): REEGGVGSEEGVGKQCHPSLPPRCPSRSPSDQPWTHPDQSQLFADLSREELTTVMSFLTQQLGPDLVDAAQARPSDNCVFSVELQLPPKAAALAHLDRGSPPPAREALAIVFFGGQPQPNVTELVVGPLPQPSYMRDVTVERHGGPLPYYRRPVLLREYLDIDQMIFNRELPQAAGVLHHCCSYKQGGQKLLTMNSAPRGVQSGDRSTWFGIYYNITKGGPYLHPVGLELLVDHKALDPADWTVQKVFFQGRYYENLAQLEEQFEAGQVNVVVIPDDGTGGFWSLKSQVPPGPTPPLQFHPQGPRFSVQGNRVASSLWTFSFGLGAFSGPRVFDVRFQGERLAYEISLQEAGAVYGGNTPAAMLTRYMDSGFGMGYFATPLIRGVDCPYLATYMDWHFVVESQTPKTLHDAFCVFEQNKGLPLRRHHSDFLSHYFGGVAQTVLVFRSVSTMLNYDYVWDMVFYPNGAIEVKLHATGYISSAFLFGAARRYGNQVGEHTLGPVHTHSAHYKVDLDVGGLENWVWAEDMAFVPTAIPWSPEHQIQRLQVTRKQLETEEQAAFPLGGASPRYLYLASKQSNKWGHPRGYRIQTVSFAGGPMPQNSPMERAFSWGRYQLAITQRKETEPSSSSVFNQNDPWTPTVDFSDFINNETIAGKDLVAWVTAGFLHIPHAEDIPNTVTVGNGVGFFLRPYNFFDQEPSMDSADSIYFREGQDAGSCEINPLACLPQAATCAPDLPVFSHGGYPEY

Row | Structure (SMILES) | IC50
1 | NCCC#Cc1ccccc1 [US9161922, Table 2, Compound 3] | 13.5 µM
2 | NCCC#CCc1ccccc1 [US9161922, Table 2, Compound 7] | 4.6 µM
3 | NC/C=C/CN [US9161922, Table 1, Compound 8] | 2000 µM
4 | NCC#CCN [US9161922, Table 1, Compound 6] | 20 µM
5 | NC/C=C(\Cl)CN [US9161922, Table 1, Compound 9] | 24 µM
6 | NCC#CC#CCN [US9161922, Table 1, Compound 7] | 9 µM
7 | CC#CCCN [US9161922, Table 2, Compound 2] | 10 µM
8 | NCCC#Cc1cccnc1 [US9161922, Table 2, Compound 6] | 3.6 µM
9 | NCC#CCNCCc1ccccc1 [US9161922, Table 1, Compound 2] | 500 µM
10 | N#CC#CCN [US9161922, Table 1, Compound 5] | 13 µM
11 | CC#CCC(N)c1ccccc1 (stereo not drawn) [US9161922, Table 2, Compound 9] | 6500 µM
12 | NCC#Cc1ccccc1 [US9161922, Table 1, Compound 3] | 700 µM
13 | CC#CC(CN)c1ccccc1 (stereo not drawn) [US9161922, Table 2, Compound 8] | 108 µM
